Source: PubChem BioAssay (NCI)
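Growth conditions: 96-well plates. Treatment: test compound, 48 hours, 5 concentrations. Analysis: linear interpolation between bracketing concentrations; unreached endpoints set to highest concentration. At the TGI there is no net growth.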

How the values were obtained:
Assay in all cases: NCI-60 cell line screen, 48 h
KM12 colon = tested on: KM12 colon
SK-MEL-5 melanoma = tested on: SK-MEL-5 melanoma
786-0 renal = tested on: 786-0 renal
MCF7 breast = tested on: MCF7 breast
SK-MEL-2 melanoma = tested on: SK-MEL-2 melanoma
SN12C renal = tested on: SN12C renal
MDA-MB-435 = tested on: MDA-MB-435
RXF 393 renal = tested on: RXF 393 renal
SR leukemia = tested on: SR leukemia
COLO 205 colon = tested on: COLO 205 colon
T-47D breast = tested on: T-47D breast
UO-31 renal = tested on: UO-31 renal
NCI/ADR-RES ovarian = tested on: NCI/ADR-RES ovarian
SK-MEL-28 melanoma = tested on: SK-MEL-28 melanoma
HT29 colon = tested on: HT29 colon
SF-295 CNS = tested on: SF-295 CNS
M14 melanoma = tested on: M14 melanoma
UACC-62 melanoma = tested on: UACC-62 melanoma
SK-OV-3 ovarian = tested on: SK-OV-3 ovarian
OVCAR-3 ovarian = tested on: OVCAR-3 ovarian
SNB-19 CNS = tested on: SNB-19 CNS
CAKI-1 renal = tested on: CAKI-1 renal
MALME-3M melanoma = tested on: MALME-3M melanoma
LOX IMVI melanoma = tested on: LOX IMVI melanoma
HS 578T breast = tested on: HS 578T breast
UACC-257 melanoma = tested on: UACC-257 melanoma
HCT-116 colon = tested on: HCT-116 colon
NCI-H226 lung = tested on: NCI-H226 lung
BT-549 breast = tested on: BT-549 breast
PC-3 prostate = tested on: PC-3 prostate
OVCAR-8 ovarian = tested on: OVCAR-8 ovarian
OVCAR-5 ovarian = tested on: OVCAR-5 ovarian
HOP-92 NSCLC = tested on: HOP-92 NSCLC
RPMI-8226 leukemia = tested on: RPMI-8226 leukemia
HL-60(TB) leukemia = tested on: HL-60(TB) leukemia
ACHN renal = tested on: ACHN renal
NCI-H522 lung = tested on: NCI-H522 lung
SF-268 CNS = tested on: SF-268 CNS
IGROV1 ovarian = tested on: IGROV1 ovarian
EKVX NSCLC = tested on: EKVX NSCLC
MDA-N = tested on: MDA-N
NCI-H23 lung = tested on: NCI-H23 lung
MDA-MB-231 breast = tested on: MDA-MB-231 breast
A549 NSCLC = tested on: A549 NSCLC
NCI-H460 lung = tested on: NCI-H460 lung
HOP-62 NSCLC = tested on: HOP-62 NSCLC
TK-10 renal = tested on: TK-10 renal
HCT-15 colon = tested on: HCT-15 colon
DU-145 prostate = tested on: DU-145 prostate
K-562 leukemia = tested on: K-562 leukemia
MOLT-4 leukemia = tested on: MOLT-4 leukemia
SNB-75 CNS = tested on: SNB-75 CNS
OVCAR-4 ovarian = tested on: OVCAR-4 ovarian
HCC-2998 colon = tested on: HCC-2998 colon
U251 CNS = tested on: U251 CNS
SW-620 colon = tested on: SW-620 colon
A498 renal = tested on: A498 renal
SF-539 CNS = tested on: SF-539 CNS

CC1CCc2sc3[nH]c(=S)n(C)c(=O)c3c2C1 (stereo unspecified)
TGI (KM12 colon): > 100 µM | TGI (SK-MEL-5 melanoma): > 100 µM | TGI (786-0 renal): > 100 µM | TGI (MCF7 breast): > 100 µM | TGI (SK-MEL-2 melanoma): > 100 µM | TGI (SN12C renal): > 100 µM | TGI (MDA-MB-435): > 100 µM | TGI (RXF 393 renal): > 100 µM | TGI (SR leukemia): > 100 µM | TGI (COLO 205 colon): > 100 µM | TGI (T-47D breast): > 100 µM | TGI (UO-31 renal): 33.6 µM | TGI (NCI/ADR-RES ovarian): > 100 µM | TGI (SK-MEL-28 melanoma): > 100 µM | TGI (HT29 colon): > 100 µM | TGI (SF-295 CNS): > 100 µM | TGI (M14 melanoma): 99.6 µM | TGI (UACC-62 melanoma): > 100 µM | TGI (SK-OV-3 ovarian): > 100 µM | TGI (OVCAR-3 ovarian): 62.4 µM | TGI (SNB-19 CNS): > 100 µM | TGI (CAKI-1 renal): > 100 µM | TGI (MALME-3M melanoma): > 100 µM | TGI (LOX IMVI melanoma): > 100 µM | TGI (HS 578T breast): > 100 µM | TGI (UACC-257 melanoma): > 100 µM | TGI (HCT-116 colon): > 100 µM | TGI (NCI-H226 lung): 87.9 µM | TGI (BT-549 breast): > 100 µM | TGI (PC-3 prostate): 72 µM | TGI (OVCAR-8 ovarian): > 100 µM | TGI (OVCAR-5 ovarian): > 100 µM | TGI (HOP-92 NSCLC): 44.5 µM | TGI (RPMI-8226 leukemia): > 100 µM | TGI (HL-60(TB) leukemia): 26.2 µM | TGI (ACHN renal): > 100 µM | TGI (NCI-H522 lung): 84.5 µM | TGI (SF-268 CNS): > 100 µM | TGI (IGROV1 ovarian): > 100 µM | TGI (EKVX NSCLC): 94.6 µM | TGI (MDA-N): > 100 µM | TGI (NCI-H23 lung): > 100 µM | TGI (MDA-MB-231 breast): > 100 µM | TGI (A549 NSCLC): > 100 µM | TGI (NCI-H460 lung): > 100 µM | TGI (HOP-62 NSCLC): > 100 µM | TGI (TK-10 renal): > 100 µM | TGI (HCT-15 colon): > 100 µM | TGI (DU-145 prostate): > 100 µM | TGI (K-562 leukemia): > 100 µM | TGI (MOLT-4 leukemia): > 100 µM | TGI (SNB-75 CNS): > 100 µM | TGI (OVCAR-4 ovarian): > 100 µM | TGI (HCC-2998 colon): 82.5 µM | TGI (U251 CNS): > 100 µM | TGI (SW-620 colon): > 100 µM

COc1cc2c3cc1Oc1cc(ccc1O)C[C@@H]1c4c(cc(OC)c(O)c4Oc4ccc(cc4)C[C@@H]3[N+](C)(C)CC2)CC[N+]1(C)C
TGI (KM12 colon): > 100 µM | TGI (SK-MEL-5 melanoma): > 100 µM | TGI (786-0 renal): > 100 µM | TGI (MCF7 breast): > 100 µM | TGI (SK-MEL-2 melanoma): > 100 µM | TGI (SN12C renal): > 100 µM | TGI (MDA-MB-435): > 100 µM | TGI (RXF 393 renal): 47 µM | TGI (SR leukemia): > 100 µM | TGI (COLO 205 colon): > 100 µM | TGI (T-47D breast): 71.2 µM | TGI (A498 renal): > 100 µM | TGI (UO-31 renal): > 100 µM | TGI (SF-539 CNS): 28.3 µM | TGI (NCI/ADR-RES ovarian): > 100 µM | TGI (SK-MEL-28 melanoma): > 100 µM | TGI (HT29 colon): > 100 µM | TGI (SF-295 CNS): 50.5 µM | TGI (M14 melanoma): 30.4 µM | TGI (UACC-62 melanoma): > 100 µM | TGI (OVCAR-3 ovarian): > 100 µM | TGI (SNB-19 CNS): > 100 µM | TGI (CAKI-1 renal): > 100 µM | TGI (MALME-3M melanoma): 74.4 µM | TGI (LOX IMVI melanoma): 42.5 µM | TGI (HS 578T breast): 85.1 µM | TGI (UACC-257 melanoma): > 100 µM | TGI (HCT-116 colon): > 100 µM | TGI (NCI-H226 lung): > 100 µM | TGI (BT-549 breast): > 100 µM | TGI (PC-3 prostate): > 100 µM | TGI (OVCAR-8 ovarian): > 100 µM | TGI (OVCAR-5 ovarian): > 100 µM | TGI (HOP-92 NSCLC): > 100 µM | TGI (RPMI-8226 leukemia): > 100 µM | TGI (HL-60(TB) leukemia): > 100 µM | TGI (ACHN renal): > 100 µM | TGI (NCI-H522 lung): > 100 µM | TGI (SF-268 CNS): > 100 µM | TGI (IGROV1 ovarian): > 100 µM | TGI (EKVX NSCLC): > 100 µM | TGI (MDA-N): > 100 µM | TGI (NCI-H23 lung): > 100 µM | TGI (MDA-MB-231 breast): > 100 µM | TGI (A549 NSCLC): > 100 µM | TGI (NCI-H460 lung): > 100 µM | TGI (HOP-62 NSCLC): > 100 µM | TGI (TK-10 renal): > 100 µM | TGI (HCT-15 colon): > 100 µM | TGI (DU-145 prostate): > 100 µM | TGI (K-562 leukemia): > 100 µM | TGI (MOLT-4 leukemia): > 100 µM | TGI (OVCAR-4 ovarian): > 100 µM | TGI (U251 CNS): > 100 µM | TGI (SW-620 colon): > 100 µM
